Source: patent publication US20200261388A1, “USE AND METHOD OF L-ASPARTIC ACID beta-HYDROXAMATE IN PREPARING DRUGS FOR INHIBITING CHOROIDAL NEOVASCULARIZATION” (WENZHOU MEDICAL UNIVERSITY, priority 2019, published 2020)

Experiments:
visual functions = system: visual functions; parameters: species or system C57BL/6j male mice; conditions: mouse, in vivo
Protocol: The effect of intravenous injection of L-ABH on visual functions are shown in FIGS. 3A-3C, in which C57BL/6j male mice were intravenously injected 6 mg/kg of L-ABH at an age of two months, one day after the injection, visual behaviors were analyzed.

macrophages J774A.1 = assay: Migration of macrophages J774A.1 co-cultured with TNFα-treated RPE; assay type: cell-based; conditions: L-ABH 0.125 mM pre-treatment of RPE 1.5 h, then TNFα 12 h; co-culture 12 h
Protocol: (§1) Using animal models of exAMD, in C57/B6 mice, fundus was irradiated with Krypton red laser (interval at 0.05 s, duration of 0.07 s, and power at 240 mW) to make CNV mice models. A serine racemase competitive inhibitor, L-aspartic acid β-hydroxamate (L-ABH), was injected intravenously at a dosage of 6 mg/kg at the day before laser, and at a dosage of 3 mg/kg at the third day after laser. At the seventh day after laser injury, stretched preparation was performed with choroid/retinal pigment epithelial cells (RPEs), which were stained with metaagglutinin GS-IB4 coupled with Alexa Fluor 594, and the volume of CNV was analyzed. And primary RPEs were utilized in vitro to study the inhibition of L-ABH on the production of VEGF and MCP-1 by RPEs which was induced with TNFα. Macrophages were co-cultured with RPEs to study L-ABH about pre-treating RPEs and inhibiting the migration of macrophages.
The results of L-ABH inhibiting the migration of macrophages under the induction of RPE treated with TNFα are shown in FIGS. 5A-5D, in which RPE was co-cultured with macrophages J774A.1 for 12 h. […] For each culture dish, nine visual fields were randomly selected under the light microscope to be counted, with the statistical analysis seen in FIG. 5D. **p<0.01, compared with the control group, # p<0.05, compared with TNFα treatment group.

[1] = system: retinal functions (B-wave of rod and cone cells); assay: Electroretinographic analysis of retinal function after intravenous L-ABH; assay type: in vivo, C57BL/6J male mice; conditions: 6 mg/kg i.v., one day after injection, vs saline injection group
Protocol: The effect of intravenous injection of L-ABH on retinal functions is shown in FIGS. 2A-2D, in which C57BL/6J male mice were intravenously injected 6 mg/kg of L-ABH at an age of two months, one day after the injection, an electrographic analysis was performed on the retina. The amplitudes of B-wave in dark and bright views are shown in FIG. 2A, FIG. 2C, and FIG. 2B respectively, and the average values of which are analyzed by histograms in FIG. 2D.

primary RPEs = assay: L-serine and D-serine in supernatants of primary RPE by HPLC; assay type: cell-based; conditions: L-ABH 0.0625-0.25 mM pre-treatment 1.5 h, then TNFα 500 unit/ml 12 h; supernatant
Protocol: Primary RPE was cultured in DMEM/F12 plus 20% FBS to a density of 70%, at which it was exchanged for DMEM/F12 plus 1% FBS, L-ABH (0.0625-0.25 mM), or after the control pre-treatment for 1.5 hours, it was exchanged for TNFα (500 unit/ml) to treat for 12 h, the supernatants were collected, and L-serine and D-serine in the supernatants were detected by high performance liquid chromatography. There were six samples in each group. The contents of L-serine and D-serine are shown with box charts in FIG. 4A, with **p<0.01, *p<0.05 showing that there was significant difference of D-serine between the treatment group and the control group. The ratio of L/D-serine was shown in FIG. 4B, with **p<0.01, *p<0.05 showing that there was significant difference between the control groups. In FIG. 4C-FIG. 4E, primary RPEs were co-cultured with macrophages J774A.1, primary RPEs were pretreated with L-ABH (0.125 mM) for 1.5 h, then treated with TNFα (500 unit/ml) for 12 h, with J774A.1 being cultured in the upper layer at the same time for 12 h, after which the supernatants cultured with RPEs were collected, and an enzyme-linked immunosorbent assay was used to detect the productions of MCP-1 (C), VEGF (D), and NO (E). (There were 7 samples for each group). In FIG. 4C, ***p<0.001, compared with the control group, **p<0.01, compared with TNFα treatment group. […]

[2] = system: primary RPEs induced with TNFα; assay: Production of VEGF and MCP-1 by TNFα-induced primary RPE (ELISA, co-culture with J774A.1); assay type: cell-based; conditions: L-ABH 0.125 mM pre-treatment 1.5 h, then TNFα 500 unit/ml 12 h
Protocol: as §1
Primary RPE was cultured in DMEM/F12 plus 20% FBS to a density of 70%, at which it was exchanged for DMEM/F12 plus 1% FBS, L-ABH (0.0625-0.25 mM), or after the control pre-treatment for 1.5 hours, it was exchanged for TNFα (500 unit/ml) to treat for 12 h, the supernatants were collected, and L-serine and D-serine in the supernatants were detected by high performance liquid chromatography. There were six samples in each group. […]

[3] = system: laser-induced choroidal neovascularization; assay: Laser-induced choroidal neovascularization (CNV) mouse model, intravenous L-ABH; assay type: in vivo, C57/B6 mice; conditions: i.v. 6 mg/kg the day before laser and 3 mg/kg third day after laser; analysed day 7 after laser; p=0.001
Protocol: as §1
The results of inhibiting the laser-induced choroidal neovascularization by intravenously injecting L-ABH are shown in FIGS. 1A-1E, wherein FIG. 1A is CNV produced by laser in 2-month-old wild-type mice. Injection of saline was used as the control group (Con, B); at the day before laser, L-ABH was injected intravenously (2 mg/kg), and 1 mg/kg (C) was injected 3 days after laser; or at the day before laser, L-ABH was injected intravenously (6 mg/kg), and 3 mg/kg (D) was injected 3 days after laser. […]

N[C@@H](CC(=O)NO)C(=O)O [L-ABH, L-aspartic acid β-hydroxamate]
retention time of mice in the black box (visual functions): no difference | macrophage migration mediated with RPE induced with TNFα (macrophages J774A.1): significantly inhibited macrophage migration | amplitude of B-wave from cone cells in a bright view [1]: no differences | amplitude of B-wave from rod cells in a dark view [1]: no differences | production of D-serine in primary RPEs (primary RPEs): decreased the production of D-serine | ratio of L-serine/D-serine (primary RPEs): increased the ratio of L-serine/D-serine | production of MCP-1 by RPE induced with TNFα [2]: significantly decreasing the production | production of VEGF by RPE induced with TNFα [2]: significantly decreasing the production | volume of CNV relative to saline control group [3]: 55%
